These results are taken from patent publication US20040106626A1, “6-Membered unsaturated heterocyclic compounds useful for selective inhibition of the coagulation cascade” (Pharmacia Corporation, priority 2001, published 2004).

Common to all, as to assay type: biochemical
In test [1] the target is T1, recombinant soluble tissue factor and recombinant human factor VIIa (TF-VIIa) (Homo sapiens, UniProt P08709).
T1 construct: conversion of coagulation factor VII to VIIa by factor Xa; purchased American Diagnostica, Greenwich CT; host or cells: soluble TF made in house in E. coli
The test can be described thus: TF-VIIa assay (chromogenic substrate hydrolysis). The conditions noted are these: reported only as less than or greater than 0.1 uM. The gist of the method: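 100 nM soluble tissue factor and 2 nM recombinant human factor VIIa added to 0.4 mM N-methylsulfonyl-D-phe-gly-arg-p-nitroaniline with inhibitor in 50 mM Tris-HCl pH 8.0, 5 mM CaCl2, 100 mM NaCl, 0.1% BSA. Percent inhibition from OD405 versus control.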

A further test concerns the target T2, Human factor Xa (Homo sapiens, UniProt P00742).
T2 construct: purchased Enzyme Research Laboratories, South Bend Ind
Put plainly: Xa assay (chromogenic substrate S-2765). As to conditions: reported only as less than or greater than 30 uM; read-out: Factor Xa (II) IC50. The gist of the method: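 Human factor Xa (0.3 nM) was incubated with inhibitor and 0.15 mM S-2765 in 50 mM Tris-HCl pH 8.0, 100 mM NaCl, 0.1% BSA. After 60 min at RT, p-nitroaniline release was read at 405 nm after background subtraction. Percent inhibition was calculated against uninhibited control.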

In another test the target is T3, Human thrombin (Homo sapiens, UniProt P00734).
T3 construct: converts prothrombin (II) to thrombin (IIa); purchased Calbiochem, La Jolla, Calif
The test can be described thus: Thrombin assay (chromogenic substrate). As to conditions: reported only as less than or greater than 30 uM; read-out: Thrombin (II) IC50. The procedure, abridged: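 Chromogenic assay with p-nitroaniline-releasing substrate; thrombin activity read as OD405 nm. Percent inhibition calculated from experimental versus control absorbance.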

For test [2], the system named is Normal human pooled plasma. Put plainly: Prothrombin time (PT) clotting assay. The conditions noted are these: concentration at which prothrombin time is prolonged by 2x normal, reported as less than or greater than 50 uM. The procedure, abridged:
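Normal human pooled plasma incubated with 100 uM compound or saline, then thromboplastin (human tissue factor) added and clotting time recorded in a coagulation machine. Compounds exceeding 3× normal PT (11.0 s) are titrated to find the concentration doubling PT.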

pIC50: −log10 of the molar value. Bounds are passed on as bounds.

T1 sequence (P08709 213-466 limits assumed): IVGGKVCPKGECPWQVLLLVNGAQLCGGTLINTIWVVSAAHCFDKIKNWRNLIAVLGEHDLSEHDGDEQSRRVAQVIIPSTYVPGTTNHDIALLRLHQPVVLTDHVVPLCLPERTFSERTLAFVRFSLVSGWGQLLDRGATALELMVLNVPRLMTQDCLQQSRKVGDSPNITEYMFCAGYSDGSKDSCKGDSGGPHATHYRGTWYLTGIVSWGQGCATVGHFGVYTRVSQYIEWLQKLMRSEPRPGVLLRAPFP
T1 sequence (P08709 61-212 limits assumed): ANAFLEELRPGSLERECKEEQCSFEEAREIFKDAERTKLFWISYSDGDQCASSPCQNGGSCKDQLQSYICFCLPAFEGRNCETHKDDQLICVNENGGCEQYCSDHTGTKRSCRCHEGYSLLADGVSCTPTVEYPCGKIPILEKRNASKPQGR
T1 sequence (P13726 33-251 partner limits assumed): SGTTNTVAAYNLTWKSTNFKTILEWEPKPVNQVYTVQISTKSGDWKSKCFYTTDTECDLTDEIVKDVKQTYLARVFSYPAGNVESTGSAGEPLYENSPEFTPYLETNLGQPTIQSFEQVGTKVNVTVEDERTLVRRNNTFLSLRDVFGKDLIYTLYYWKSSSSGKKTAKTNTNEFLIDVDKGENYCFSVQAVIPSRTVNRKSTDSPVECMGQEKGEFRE
T2 sequence (P00742 235-488 limits assumed): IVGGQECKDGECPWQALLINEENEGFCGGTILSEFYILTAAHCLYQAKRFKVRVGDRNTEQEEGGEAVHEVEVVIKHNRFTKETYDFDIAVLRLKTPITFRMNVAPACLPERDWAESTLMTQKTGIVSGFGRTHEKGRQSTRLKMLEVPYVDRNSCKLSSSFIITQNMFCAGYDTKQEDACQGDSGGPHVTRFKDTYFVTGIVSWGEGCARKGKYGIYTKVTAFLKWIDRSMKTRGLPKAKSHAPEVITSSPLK
T2 sequence (P00742 41-179 limits assumed): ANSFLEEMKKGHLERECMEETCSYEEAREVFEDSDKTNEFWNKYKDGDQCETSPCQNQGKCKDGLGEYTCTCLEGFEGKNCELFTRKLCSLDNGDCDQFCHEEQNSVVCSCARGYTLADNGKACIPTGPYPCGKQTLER

The pIC50 is the IC50 on a negative log10 scale, so that one unit is a factor of ten. In the case of `CC(C)Nc1ncc(-c2cc(N)cc(C(=O)NCc3cccc(O)c3)c2)n(CC(=O)NCc2ccc(C(=N)N)cc2)c1=O` [Example 166], the pIC50 was above 7.00 in test [1], below 4.52 on Human factor Xa and below 4.52 at Human thrombin. Further, the “PT (Prothrombin time) 2xPT” value in test [2] is below 50.0 µM.

Take `CC[C@H](C)NC(=O)c1cc(N)cc(-c2cnc(NC(C)C)c(=O)n2CC(=O)NCc2ccc(C(=N)N)cc2O)c1.O=C(O)C(F)(F)F` [Example 167, 3-amino-5-[1-[2-({4-[amino(imino)methyl]-2-hydroxybenzyl}amino)-2-oxoethyl]-5-(isopropylamino)-6-oxo-1,6-dihydropyrazin-2-yl]-N-[(1S)-1-methylpropyl]benzamide]: the pIC50 in test [1] is above 7.00; on Human factor Xa it was below 4.52; on Human thrombin, above 4.52. The “PT (Prothrombin time) 2xPT” value in test [2] was below 50.0 µM.

For the compound `COC(=O)c1ccc(CNC(=O)c2cc(N)cc(-c3cnc(NC(C)C)c(=O)n3CC(=O)NCc3ccc(C(=N)N)cc3)c2)cc1.O=C(O)C(F)(F)F` [Example 169], the figures for the pIC50 (in test [1]; on Human factor Xa; on Human thrombin) were above 7.00, below 4.52 and above 4.52, respectively. In test [2], the “PT (Prothrombin time) 2xPT” value was below 50.0 µM.

In the case of `Cc1cc(N)cc(-c2cnc(NC(C)C)c(=O)n2CC(=O)NCc2ccc(C(=N)N)cc2)c1.Cl.Cl` [Example 170], the negative logarithm of the IC50 (pIC50) in test [1] was above 7.00; at Human factor Xa, below 4.52; at Human thrombin, below 4.52. Moreover, the “PT (Prothrombin time) 2xPT” value in test [2] is below 50.0 µM.

On to `CC(C)Nc1ncc(-c2cc(N)cc(C(=O)NCc3ccc(C(=O)O)cc3)c2)n(CC(=O)NCc2ccc(C(=N)N)cc2)c1=O.O=C(O)C(F)(F)F.O=C(O)C(F)(F)F` [Example 171], for which the pIC50 in test [1] is above 7.00; at Human factor Xa it was below 4.52; at Human thrombin it was below 4.52. Also, the “PT (Prothrombin time) 2xPT” value in test [2] was below 50.0 µM.

On to `CC(C)Nc1ncc(-c2cc(N)cc(C(=O)NCCC(=O)O)c2)n(CC(=O)NCc2ccc(C(=N)N)cc2)c1=O.O=C(O)C(F)(F)F.O=C(O)C(F)(F)F` [Example 172], for which the values for the pIC50 (in test [1]; at Human factor Xa; at Human thrombin) were above 7.00, below 4.52 and below 4.52, respectively. The “PT (Prothrombin time) 2xPT” value in test [2] is below 50.0 µM.

Take `COc1ccc(CNC(=O)c2cc(N)cc(-c3cnc(NC(C)C)c(=O)n3CC(=O)NCc3ccc(C(=N)N)cc3)c2)cc1.O=C(O)C(F)(F)F.O=C(O)C(F)(F)F` [Example 174]: the values for the pIC50 (in test [1]; at Human factor Xa; at Human thrombin) were above 7.00, below 4.52 and below 4.52, respectively. Further, the “PT (Prothrombin time) 2xPT” value in test [2] was below 50.0 µM.

Consider `CC(=O)Oc1cc(N)cc(-c2cnc(NC(C)C)c(=O)n2CC(=O)NCc2ccc(C(=N)N)cc2)c1.O=C(O)C(F)(F)F` [Example 175], for which the pIC50 in test [1] is above 7.00; at Human factor Xa, below 4.52; at Human thrombin, below 4.52. The “PT (Prothrombin time) 2xPT” value in test [2] was below 50.0 µM.

For the compound `CC(C)Nc1ncc(-c2cc(N)cc(C(=O)NCc3ccc(O)cc3)c2)n(CC(=O)NCc2ccc(C(=N)N)cc2)c1=O.O=C(O)C(F)(F)F` [Example 176], the pIC50 in test [1] is above 7.00; at Human factor Xa it was below 4.52; at Human thrombin it was below 4.52. For the same compound, in test [2], the “PT (Prothrombin time) 2xPT” value was below 50.0 µM.

In the case of `COc1cccc(CNC(=O)c2cc(N)cc(-c3cnc(NC(C)C)c(=O)n3CC(=O)NCc3ccc(C(=N)N)cc3)c2)c1.O=C(O)C(F)(F)F` [Example 177], the figures for the pIC50 (in test [1]; on Human factor Xa; on Human thrombin) were above 7.00, below 4.52 and below 4.52, respectively. In test [2], the “PT (Prothrombin time) 2xPT” value is below 50.0 µM.

Turning to `N=C(N)c1ccc(CNC(=O)Cn2c(-c3cc(N)cc(O)c3)cnc(NC3CC3)c2=O)cc1.O=C(O)C(F)(F)F.O=C(O)C(F)(F)F` [Example 179], the pIC50 was above 7.00 in test [1], below 4.52 at Human factor Xa and below 4.52 at Human thrombin. The “PT (Prothrombin time) 2xPT” value in test [2] was below 50.0 µM.

Regarding `CC(C)Nc1ncc(-c2cc(N)cc(O)c2)n(CC(=O)NCc2ccc(C(=N)N)c(O)c2)c1=O.O=C(O)C(F)(F)F` [Example 181, 2-[6-(3-amino-5-hydroxyphenyl)-3-(isopropylamino)-2-oxopyrazin-1 (2H)-yl]-N-{4-[amino(imino)methyl]-3-hydroxybenzyl}acetamide], the negative logarithm of the IC50 (pIC50) is below 7.00 in test [1], below 4.52 on Human factor Xa and below 4.52 on Human thrombin. For the same compound, the “PT (Prothrombin time) 2xPT” value in test [2] is above 50.0 µM.

Regarding `CC[C@@H](C)NC(=O)c1cc(N)cc(-c2cnc(NC(C)C)c(=O)n2CC(=O)NCc2ccc(C(=N)N)cc2OC)c1.O=C(O)C(F)(F)F.O=C(O)C(F)(F)F` [Example 182, 3-amino-5-[1-[2-({4-[amino(imino)methyl]-2-methoxybenzyl}amino)-2-oxoethyl]-5-(isopropylamino)-6-oxo-1,6-dihydropyrazin-2-yl]-N-[(1R)-1-methylpropyl]benzamide], the pIC50 is above 7.00 in test [1], below 4.52 at Human factor Xa and above 4.52 on Human thrombin. In addition, in test [2], the “PT (Prothrombin time) 2xPT” value was below 50.0 µM.

For the compound `CC[C@@H](C)NC(=O)c1cc(N)cc(-c2cnc(NC(C)C)c(=O)n2CC(=O)NCc2c(F)c(O)c(C(=N)N)c(F)c2F)c1.Cl.Cl` [Example 185, 3-[1-[2-({4-[amino(imino)methyl]-2,3,6-trifluoro-5-hydroxybenzyl}amino)-2-oxoethyl]-5-(isopropylamino)-6-oxo-1,6-dihydropyrazin-2-yl]-N-[(1R)-1-methylpropyl]-5-aminobenzamide Dihydrochloride], the negative logarithm of the IC50 (pIC50) was above 7.00 in test [1], below 4.52 at Human factor Xa and below 4.52 at Human thrombin. In addition, the “PT (Prothrombin time) 2xPT” value in test [2] is below 50.0 µM.

As for `CC(C)Nc1ncc(-c2cc(N)cc(C(=O)NCc3ccc(F)c(O)c3)c2)n(CC(=O)NCc2ccc(C(=N)N)cc2)c1=O.O=C(O)C(F)(F)F` [Example 186], the pIC50 in test [1] is above 7.00; at Human factor Xa, below 4.52; at Human thrombin, below 4.52. The “PT (Prothrombin time) 2xPT” value in test [2] is below 50.0 µM.

In the case of `CCCCOC(=O)c1cc(N)cc(-c2cnc(NC(C)C)c(=O)n2CC(=O)NCc2ccc(C(=N)N)cc2)c1.O=C(O)C(F)(F)F` [Example 187], the figures for the pIC50 (in test [1]; at Human factor Xa; at Human thrombin) were above 7.00, below 4.52 and below 4.52, respectively. For the same compound, the “PT (Prothrombin time) 2xPT” value in test [2] is below 50.0 µM.

Regarding `CC[C@H](C)NC(=O)c1cc(N)cc(-c2cnc(N[C@@H](C)C(C)C)c(=O)n2CC(=O)NCc2ccc(C(=N)N)cc2)c1.O=C(O)C(F)(F)F.O=C(O)C(F)(F)F` [Example 190], the figures for the pIC50 (in test [1]; at Human factor Xa; at Human thrombin) were above 7.00, below 4.52 and above 4.52, respectively. For the same compound, the “PT (Prothrombin time) 2xPT” value in test [2] was below 50.0 µM.

For `CC[C@H](C)NC(=O)c1cc(N)cc(-c2cnc(N[C@@H](C)CC)c(=O)n2CC(=O)NCc2ccc(C(=N)N)cc2)c1.O=C(O)C(F)(F)F.O=C(O)C(F)(F)F` [Example 191], the negative-log IC50 (pIC50) is above 7.00 in test [1], below 4.52 on Human factor Xa and above 4.52 on Human thrombin. In addition, the “PT (Prothrombin time) 2xPT” value in test [2] was below 50.0 µM.

Turning to `CCCNc1ncc(-c2cc(N)cc(C(=O)N[C@@H](C)CC)c2)n(CC(=O)NCc2ccc(C(=N)N)cc2)c1=O.O=C(O)C(F)(F)F.O=C(O)C(F)(F)F` [Example 192], the figures for the pIC50 (in test [1]; on Human factor Xa; at Human thrombin) were above 7.00, below 4.52 and above 4.52, respectively. Also, in test [2], the “PT (Prothrombin time) 2xPT” value was below 50.0 µM.

For `CC[C@H](C)NC(=O)c1cc(N)cc(-c2cnc(NC(C)C)c(=O)n2CC(=O)NCc2c(O)cc(C(=N)N)cc2O)c1` [Example 193], the values for the negative logarithm of the IC50 (pIC50) (in test [1]; at Human factor Xa; on Human thrombin) were below 7.00, below 4.52 and below 4.52, respectively. Also, the “PT (Prothrombin time) 2xPT” value in test [2] is below 50.0 µM.

For `CCNc1ncc(-c2cc(N)cc(C(=O)N[C@@H](C)CC)c2)n(CC(=O)NCc2ccc(C(=N)N)cc2)c1=O.O=C(O)C(F)(F)F.O=C(O)C(F)(F)F` [Example 194], the values for the pIC50 (in test [1]; on Human factor Xa; at Human thrombin) were above 7.00, below 4.52 and below 4.52, respectively. In addition, the “PT (Prothrombin time) 2xPT” value in test [2] was below 50.0 µM.

In the case of `CC[C@H](C)NC(=O)c1cc(N)cc(-c2cnc(NC(C)C)c(=O)n2CC(=O)NCc2c(O)cc(C(=N)N)cc2OC)c1` [Example 195], the pIC50 was above 7.00 in test [1], below 4.52 on Human factor Xa and below 4.52 on Human thrombin. For the same compound, the “PT (Prothrombin time) 2xPT” value in test [2] is below 50.0 µM.

Take `CC[C@@H](C)NC(=O)c1cc(N)cc(-c2cnc(NC(C)C)c(=O)n2CC(=O)NCc2c(O)cc(C(=N)N)cc2OC)c1` [Example 198]: the pIC50 was above 7.00 in test [1], below 4.52 on Human factor Xa and below 4.52 at Human thrombin. Further, the “PT (Prothrombin time) 2xPT” value in test [2] was below 50.0 µM.

Take `CC[C@@H](C)NC(=O)c1cc(N)cc(-c2cnc(NC(C)C)c(=O)n2CC(=O)NCc2c(O)cc(C(=N)N)cc2O)c1` [Example 199]: the pIC50 in test [1] is above 7.00; at Human factor Xa it was below 4.52; at Human thrombin, below 4.52. Also, the “PT (Prothrombin time) 2xPT” value in test [2] was below 50.0 µM.
